Results as given in patent publication US11261201B2 (priority 2018, dated 2022).
Converted amounts (≈) assume the structure as drawn. Counter-ions that a name gives are not always drawn. Like-named read-outs stand apart in the source and are kept apart here.

Experiments:
[1] = test system: A. baumannii; experiment: Gram negative MIC protocol (OD600, LB, 24 h); conditions: for MIC: Acinetobacter baumannii
Method: (§1) Overnight bacterial cultures were grown in LB with no added antibiotics at 37° C. with shaking. A 1:1000 dilution of these cultures into LB was exposed to concentration gradients of compounds in 96-well plates (100 μL per well assay volume). Resulting plates were incubated at 37° C. for 24 h without shaking, and OD600 was measured at the end of the incubation. MICs were determined as the lowest concentrations at which OD600 remained at baseline.

[2] = test system: H37RvMA; experiment: Tuberculosis Alamar Blue/Resazurin assay (MIC); type: cell-based; conditions: read-out: WT H37Rv MTB Activity
[3] = test system: E. coli; experiment: Gram negative MIC protocol (OD600, LB, 24 h); conditions: for MIC: Escherichia coli
Method: as §1

[4] = read-out: MIC A. baumannii LB Media, A. baumannii, LB media, 24 h, OD600
[5] = Mycobacterium tuberculosis, H37RV, WT H37Rv MTB
[6] = read-out: MIC E. coli delta-TolC LB Media, E. coli delta-TolC, LB media, OD600
[7] = read-out: MIC WT E. coli LB Media, WT E. coli, LB media, OD600
[8] = read-out: MIC E. coli delta-TolC LB Media, E. coli delta-TolC strain, LB media, 24 h, OD600
[9] = read-out: MIC WT E. coli LB Media, wild-type E. coli, LB media, 24 h, OD600
[10] = read-out: MIC A. baumannii LB Media
[11] = Mycobacterium tuberculosis, H37RV

Compound | MIC [1, 4] | MIC [2, 5] | MIC [3, 6] | MIC [3, 7] | MIC [3, 8] | MIC [3, 9] | further results
CC(CN1Cc2ccccc2CC1=O)C1CCCCC1 (centres unmarked) [B413, 2-(2-cyclohexylpropyl)-1,4-dihydroisoquinolin-3(2H)-one] | > 150 µM | 7.4 µM (≈ 2.01 µg/mL) | 55 µM (≈ 14.9 µg/mL) | > 150 µM | – | – | –
COC(=O)C(C)Oc1ccccc1CNC(C)CC1CCCCC1 (centres unmarked) [B327] | > 150 µM | > 150 µM | – | – | 7 µM (≈ 2.33 µg/mL) | > 150 µM | –
CCc1noc(COc2ccccc2CNC(C)CC2CCCCC2)n1 (centres unmarked) [B324] | > 150 µM | > 150 µM | – | – | 7 µM (≈ 2.5 µg/mL) | > 150 µM | –
O=C1OC(COc2ccccc2CNCCC2=CCCCC2)CN1C1CC1 (centres unmarked) [B370] | > 150 µM | > 150 µM | – | – | 12 µM (≈ 4.45 µg/mL) | > 150 µM | –
Cc1ccccc1CNCCC1=CCCCC1 [B13, 2-(cyclohex-1-en-1-yl)-N-(2-methylbenzyl)ethan-1-amine] | 150 µM (≈ 34.4 µg/mL) | > 150 µM | 55 µM (≈ 12.6 µg/mL) | 90 µM (≈ 20.6 µg/mL) | – | – | –
c1ccc(CNCCc2ccc3c(c2)OCO3)cc1 [B154] | – | – | > 150 µM | > 150 µM | – | – | MIC [1, 10]: > 150 µM; MIC [2, 11]: > 150 µM
C1=CC(CCNCc2ccccc2)CCC1 (centres unmarked) [B160] | – | – | > 150 µM | > 150 µM | – | – | MIC [1, 10]: > 150 µM; MIC [2, 11]: > 150 µM
NCc1ccccc1CNCCC1CCCCC1 [B254, N-(2-(aminomethyl)benzyl)-2-cyclohexylethanamine hydrochloride] | > 150 µM | > 150 µM | – | – | > 150 µM | > 150 µM | –
CC(CC1CCCCC1)NCc1ccccc1OCC(=O)NC(=O)NC1CCCC1 (centres unmarked) [B317] | 91 µM (≈ 37.8 µg/mL) | 55 µM (≈ 22.9 µg/mL) | – | – | 3 µM (≈ 1.25 µg/mL) | 91 µM (≈ 37.8 µg/mL) | –
CC(Cc1ccccn1)NCc1ccccc1 (centres unmarked) [B75] | > 150 µM | – | > 150 µM | > 150 µM | – | – | MIC [2, 11]: > 150 µM
Fc1ccc(CC2(NCc3ccccc3)CC2)cc1 [B97] | > 150 µM | – | > 150 µM | > 150 µM | – | – | MIC [2, 11]: > 150 µM
CC(CC1CC=CCC1)NCc1ccccc1 (centres unmarked) [B157, N-benzyl-1-(cyclohex-3-enyl)propan-2-amine] | – | – | 11 µM (≈ 2.52 µg/mL) | 20 µM (≈ 4.59 µg/mL) | – | – | MIC [1, 10]: 55 µM (≈ 12.6 µg/mL); MIC [2, 11]: 91 µM (≈ 20.9 µg/mL)
CC(CC1CCCCC1)NCc1ccccc1OCC(=O)NC(N)=O (centres unmarked) [B335] | 150 µM (≈ 52.1 µg/mL) | > 150 µM | – | – | 4 µM (≈ 1.39 µg/mL) | 55 µM (≈ 19.1 µg/mL) | –
CC(CC1CCCCC1)NCc1ccccc1OCc1cc(Br)no1 (centres unmarked) [B302] | 150 µM (≈ 61.1 µg/mL) | 55 µM (≈ 22.4 µg/mL) | – | – | < 1 µM | 150 µM (≈ 61.1 µg/mL) | –
Cc1nc(COc2ccccc2CNC(C)CC2CCCCC2)oc1C (centres unmarked) [B246] | > 150 µM | 91 µM (≈ 32.4 µg/mL) | – | – | 12 µM (≈ 4.28 µg/mL) | > 150 µM | –
OC1(CCNCc2ccccc2)CCCCC1 [B187] | > 300 µM | > 150 µM | > 300 µM | > 300 µM | – | – | –
CC(CC1CCCCC1)NCc1ccccc1CS(=O)(=O)Nc1cccc(B(O)O)c1 (centres unmarked) [B457, (3-(((2-(((1-cyclohexylpropan-2-yl)amino)methyl)phenyl)methyl)sulfonamido)phenyl)boronic acid] | 33 µM (≈ 14.7 µg/mL) | > 55 µM | < 1 µM | 33 µM (≈ 14.7 µg/mL) | – | – | –
OC[C@H](Cc1ccccc1)NCc1ccccc1 [B174] | > 300 µM | > 150 µM | > 300 µM | > 300 µM | – | – | –
OC1(CNCc2ccccc2)C2C3CC4C5C3CC2C5C41 (centres unmarked) [B37] | > 150 µM | 150 µM (≈ 42.2 µg/mL) | > 150 µM | > 150 µM | – | – | –
CC1CCC(CC(C)NCc2ccccc2OCc2ccccc2F)CC1 (centres unmarked) [B465, N-(2-((2-fluorobenzyl)oxy)benzyl)-1-(4-methylcyclohexyl)propan-2-amine] | 90 µM (≈ 33.3 µg/mL) | 20 µM (≈ 7.39 µg/mL) | 7 µM (≈ 2.59 µg/mL) | > 150 µM | – | – | –
CC(C)(CN1CCOCC1)NCc1ccccc1 [B67] | > 150 µM | > 150 µM | > 150 µM | > 150 µM | – | – | –

Compound | MIC [1, 4] | MIC [2, 5] | MIC [3, 6] | MIC [3, 7] | MIC [3, 8] | MIC [3, 9] | further results
CC1CCC(Oc2ccccc2CNC(C)CC2CCCCC2)CC1 (centres unmarked) [B394, 1-cyclohexyl-N-(2-((4-methylcyclohexyl)oxy)benzyl)propan-2-amine] | 55 µM (≈ 18.9 µg/mL) | 20.2 µM (≈ 6.94 µg/mL) | – | – | 3 µM (≈ 1.03 µg/mL) | 150 µM (≈ 51.5 µg/mL) | –
Cc1nonc1COc1ccccc1CNC(C)CC1CCCCC1 (centres unmarked) [B245] | 150 µM (≈ 51.5 µg/mL) | 150 µM (≈ 51.5 µg/mL) | – | – | 4 µM (≈ 1.37 µg/mL) | 150 µM (≈ 51.5 µg/mL) | –
COc1ccc(C(C)C(C)NCc2ccccc2)cc1 (centres unmarked) [B28] | > 150 µM | – | > 150 µM | > 150 µM | – | – | MIC [2, 11]: > 150 µM
COC(=O)CCCOc1ccccc1CNC(C)CC1CCCCC1 (centres unmarked) [B276] | > 150 µM | > 150 µM | – | – | 4 µM (≈ 1.39 µg/mL) | > 150 µM | –
Oc1cccc(CNCCC2CCCCC2)c1 [B356] | > 150 µM | > 150 µM | – | – | > 150 µM | > 150 µM | –
CC(Cc1ccc2ccccc2c1)NCc1ccccc1 (centres unmarked) [B194] | – | – | – | – | – | – | MIC A. baumannii LB Media ([1]; A. baumannii, LB media, OD600): 300 µM (≈ 82.6 µg/mL); MIC [2]: 150 µM (≈ 41.3 µg/mL); MIC E. coli delta-TolC LB Media ([3]; E. coli delta-TolC, LB media, OD600): 170 µM (≈ 46.8 µg/mL); MIC WT E. coli LB Media ([3]; WT E. coli, LB media, OD600): >300 µM
Oc1ccccc1CNCCC1CCCCC1 [B226, 2-((2-cyclohexylethylamino)methyl)phenol] | 54 µM (≈ 12.6 µg/mL) | 33 µM (≈ 7.7 µg/mL) | – | – | 33 µM (≈ 7.7 µg/mL) | 54 µM (≈ 12.6 µg/mL) | –
c1ccc(CNCC2CCCCCC2)cc1 [B99] | > 150 µM | 55 µM (≈ 12 µg/mL) | > 150 µM | > 150 µM | – | – | –
CC(CC1CCCCC1)NCc1ccccc1OCCc1ccccc1F (centres unmarked) [B429, 1-cyclohexyl-N-(2-(2-fluorophenethoxy)benzyl)propan-2-amine] | 33 µM (≈ 12.2 µg/mL) | 20.2 µM (≈ 7.46 µg/mL) | 2 µM (≈ 0.739 µg/mL) | 55 µM (≈ 20.3 µg/mL) | – | – | –
C1=CC2CC1CC2CCNCc1ccccc1 (centres unmarked) [B70] | > 150 µM | > 150 µM | > 150 µM | > 150 µM | – | – | –
Fc1ccc(CNCCC2=CCCCC2)cc1F [B144] | > 150 µM | > 150 µM | > 150 µM | > 150 µM | – | – | –
c1ccc(CNCCN2CCCC3CCCCC32)cc1 (centres unmarked) [B124] | > 150 µM | > 150 µM | > 150 µM | > 150 µM | – | – | –
c1ccc(CNCCc2ccc3cc[nH]c3c2)cc1 [B114] | – | – | > 150 µM | > 150 µM | – | – | MIC [1, 10]: > 150 µM; MIC [2, 11]: > 150 µM
OC1(CCNCc2ccccc2)CC2CCC1C2 (centres unmarked) [B60] | > 150 µM | > 150 µM | > 150 µM | > 150 µM | – | – | –
COC(=O)c1cccc(CNCCC2CCCCC2)c1 [B349] | > 150 µM | > 150 µM | – | – | > 150 µM | > 150 µM | –
CC(C)=CCCNCc1ccccc1 [B51] | > 150 µM | > 150 µM | > 150 µM | > 150 µM | – | – | –
CCOC(COc1ccccc1CNC(C)CC1CCCCC1)OCC (centres unmarked) [B298] | > 150 µM | > 150 µM | – | – | 12 µM (≈ 4.36 µg/mL) | > 150 µM | –
COCCOCCOc1ccccc1CNC(C)CC1CCCCC1 (centres unmarked) [B301] | > 150 µM | > 150 µM | – | – | 12 µM (≈ 4.19 µg/mL) | > 150 µM | –
CC(C)C[C@H](N)C(=O)NS(=O)(=O)Cc1ccccc1CNC(C)CC1CCCCC1 (stereo partly drawn) [B428, (2S)-2-amino-N-((2-(((1-cyclohexylpropan-2-yl)amino)methyl)benzyl)sulfonyl)-4-methylpentanamide dihydrochloride] | > 150 µM | > 150 µM | 55 µM | > 150 µM | – | – | –
CC(CC1CCCCC1)NCc1ccccc1OCc1nccs1 (centres unmarked) [B240] | > 150 µM | 150 µM (≈ 51.7 µg/mL) | – | – | 7 µM (≈ 2.41 µg/mL) | > 150 µM | –
